Results on four compounds are retold here after patent US9474790B2, “Stable, protracted GLP-1/glucagon receptor co-agonists for medical use” (Novo Nordisk A/S, priority 2013, dated 2016).

The target of series [1] is T1, human GLP-1 receptor (Homo sapiens, UniProt P43220).
T1 construct: expressed in transfected cells; host or cells: BHK cells (parent BHKTS13), clone FCW467-12A/KZ10-1, with CRE luciferase
Nature of the series: GLP-1 receptor potency, CRE luciferase reporter gene assay in BHK cells. The format is cell-based. The settings on record: BHK cells expressing human GLP-1 receptor, read-out: EC50 GLP-1R. A digest of the protocol: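 BHK cells stably expressing human GLP-1 receptor with CRE-luciferase reporter, 5×10EE3 cells/well in phenol red-free DMEM with 10 mM Hepes, 2% ovalbumin, 0.2% Pluronic F-68. Compounds at final 1×10EE-6 to 1×10EE-13 M, 3 h at 37° C; steadylite luminescence; EC50 by four-parameter fit, in pM.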
(A reporter such as luciferase makes a cellular process visible.)

The target of series [2] is T1, human GLP-1 receptor. Nature of the series: GLP-1 receptor binding, 125I-GLP-1 displacement SPA on isolated membranes. The settings on record: displacement of 125I-GLP-1 from membranes; read-out: IC50 GLP-1R. A digest of the protocol:
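SPA displacement of 125I-GLP-1(7-36)NH2 from membranes of BHK cells expressing human GLP-1 receptor, with WGA beads, in 50 mM HEPES, 5 mM EGTA, 5 mM MgCl2, 0.005% Tween 20, pH 7.4. Incubated 2 h at 30°C; IC50 by non-linear regression, run at ≤0.001% or 2.0% final serum albumin.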
(In general: Displacement assays read how much labelled ligand stays bound in the presence of the test substance.)

Series [3] is described as follows: Chemical stability assessment by RP-UPLC. The format is physicochemical. The following applies: 333 μM, 8 mM phosphate buffer pH 7.3, 37° C. vs 5° C. As to the method: The purpose of this assay was to assess the chemical stability of the glucagon derivatives of the invention in aqueous solutions.
Chemical stability of glucagon derivatives or analogues was investigated by RP-UPLC separation and UV detection. Lyophilized samples were dissolved in a 8 mM Phosphate buffer pH 8.6, followed by adjustment to pH 7.3.using HCl to a final concentration of 333 μM. Samples were incubated for 14 days at 5° C. and 37° C. followed by RP-UPLC analysis. Purity was defined as the area percentage of the main peak in relation to the total area of all integrated peaks in each chromatogram. Purity loss after 14 days at 37° C. was determined as the difference in purity between the samples incubated at 5° C. and 37° C., divided by the purity of the sample after incubation for 14 days at 5° C.
RP-UPLC analysis was performed using a Waters BEH130 2.1 mm×150 mm, 1.7 μm column operated at 50° C. and a flow rate of 0.4 mL/min using a mobile phase system consisting of A: 0.05% TFA in MQ-water B: 0.05% TFA in Acetonitrile. UV-detection was performed at 215 nm. The typical gradient profile used for most of the samples is shown below.
For some individual derivatives or analogues eluting at substantially different retention times compared with the majority of derivatives or analogues, some adjustments to the gradient profile were made to better enable purity assessment comparison across samples. The data confirmed the improved chemical stability of the glucagon derivatives of this invention.

A short description of series [4]: Thioflavin T (ThT) fibrillation assay for physical stability. In kind it is physicochemical. The settings on record: 250 μM in 10 mM HEPES buffer, pH 7.5, 37° C., shaking 960 rpm. An outline of the steps: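 Peptide at 250 μM in 10 mM HEPES pH 7.5 with 1 μM ThT, at 37° C with 960 rpm orbital shaking. Fluorescence (ex 444/em 485 nm) read every 20 min after 10 min pre-incubation; sigmoidal fit gives lag time (t0−2τ) and kapp (1/τ). Recovery is RP-HPLC peptide in the centrifuged, 0.22 μm-filtered supernatant as % of initial.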

Structures are written as SMILES. Numbered stars: 1 amine (or outer) side, 2 acyl side, 3 side chain; on linkers, the order of the positions; unused ones are H or OH. Square brackets hold non-standard residues; d marks the D form. Side chains are listed from the residue outwards. Peptide text beside a SMILES is read from it. * marks the point of attachment. C18 diacid = O=C(O)CCCCCCCCCCCCCCCCC(=O)*; γGlu = O=C(O)[C@H](CCC(=O)[*:2])N[*:1]; AEEA = NCCOCCOCC(=O)O; Aib = CC(C)(N)C(=O)O

T1 sequence (P43220 24-463): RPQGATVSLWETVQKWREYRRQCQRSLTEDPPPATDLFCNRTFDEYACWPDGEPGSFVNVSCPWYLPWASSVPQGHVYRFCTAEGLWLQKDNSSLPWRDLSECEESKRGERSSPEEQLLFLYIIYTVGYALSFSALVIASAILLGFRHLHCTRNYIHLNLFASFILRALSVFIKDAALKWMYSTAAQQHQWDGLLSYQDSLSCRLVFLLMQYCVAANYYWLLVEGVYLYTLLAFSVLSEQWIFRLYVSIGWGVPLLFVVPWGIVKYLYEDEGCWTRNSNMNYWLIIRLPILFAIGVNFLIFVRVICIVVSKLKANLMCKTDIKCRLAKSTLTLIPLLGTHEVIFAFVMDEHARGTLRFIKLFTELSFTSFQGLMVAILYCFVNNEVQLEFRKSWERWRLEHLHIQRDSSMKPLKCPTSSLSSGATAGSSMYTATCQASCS

Consider `CC(C)C[C@H](NC(=O)[C@H](Cc1ccc(O)cc1)NC(=O)[C@H](CCCNC(=N)N)NC(=O)[C@H](CO)NC(=O)[C@@H](NC(=O)[C@H](CC(=O)O)NC(=O)[C@H](CO)NC(=O)[C@@H](NC(=O)[C@H](Cc1ccccc1)NC(=O)[C@@H](NC(=O)CNC(=O)[C@H](CCC(N)=O)NC(=O)C(C)(C)NC(=O)[C@@H](N)Cc1c[nH]cn1)[C@@H](C)O)[C@@H](C)O)C(C)C)C(=O)N[C@@H](CC(=O)O)C(=O)N[C@@H](C)C(=O)N[C@@H](CCCNC(=N)N)C(=O)N[C@@H](CCCNC(=N)N)C(=O)N[C@@H](C)C(=O)N[C@@H](CCC(N)=O)C(=O)N[C@@H](CC(=O)O)C(=O)N[C@@H](Cc1ccccc1)C(=O)N[C@H](C(=O)N[C@@H](CCC(N)=O)C(=O)N[C@@H](Cc1c[nH]c2ccccc12)C(=O)N[C@@H](CC(C)C)C(=O)N[C@@H](CC(C)C)C(=O)N[C@@H](CCCCNC(=O)COCCOCCNC(=O)COCCOCCNC(=O)CC[C@H](NC(=O)CC[C@H](NC(=O)CC[C@H](NC(=O)CCCCCCCCCCCCCCCCC(=O)O)C(=O)O)C(=O)O)C(=O)O)C(=O)N[C@H](C(N)=O)[C@@H](C)O)C(C)C` [Example 72, N^ε28-[2-[2-[2-[(2-[2-[2-[[(4S)-4-carboxy-4-[[(4S)-4-carboxy-4-[[(4S)-4-carboxy-4-(17-carboxyheptadecanoylamino)butanoyl]amino]butanoyl]amino]butanoyl]amino]ethoxy]ethoxy]acetyl]amino]ethoxy]ethoxy]acetyl]-[Aib2,Val10,Arg12,Ala16,Leu27,Lys28]-Glucagon amide] (H-H[Aib]QGTFTSDVSRYLDARRAQDFVQWLLK([AEEA-AEEA-γGlu-γGlu-γGlu-C18 diacid])T-NH2), for which the EC50 in series [1] was 0.003 nM. In series [2], the IC50 worked out at 0.5 nM.

Take `CC(C)C[C@H](NC(=O)[C@H](Cc1ccc(O)cc1)NC(=O)[C@H](CCCCN)NC(=O)[C@H](CO)NC(=O)[C@H](CC(C)C)NC(=O)[C@H](CC(=O)O)NC(=O)[C@H](CO)NC(=O)[C@@H](NC(=O)[C@H](Cc1ccccc1)NC(=O)[C@@H](NC(=O)CNC(=O)[C@H](CCC(N)=O)NC(=O)C(C)(C)NC(=O)[C@@H](N)Cc1c[nH]cn1)[C@@H](C)O)[C@@H](C)O)C(=O)N[C@@H](CCC(=O)O)C(=O)N[C@@H](CO)C(=O)N[C@@H](CCCCN)C(=O)N[C@@H](CCCNC(=N)N)C(=O)N[C@@H](C)C(=O)N[C@@H](CCCNC(=N)N)C(=O)N[C@@H](CCC(=O)O)C(=O)N[C@@H](Cc1ccccc1)C(=O)N[C@H](C(=O)N[C@@H](CCC(N)=O)C(=O)N[C@@H](Cc1c[nH]c2ccccc12)C(=O)N[C@@H](CC(C)C)C(=O)N[C@@H](CC(C)C)C(=O)N[C@@H](CCCCNC(=O)CC[C@H](NC(=O)CC[C@H](NC(=O)COCCOCCNC(=O)COCCOCCNC(=O)CC[C@H](NC(=O)CCCCCCCCCCCCCCCCC(=O)O)C(=O)O)C(=O)O)C(=O)O)C(=O)N[C@H](C(N)=O)[C@@H](C)O)C(C)C` [Example 22, N^ε29-[(4S)-4-carboxy-4-[[(4S)-4-carboxy-4-[[2-[2-[2-[[2-[2-[2-[[(4S)-4-carboxy-4-(17-carboxyheptadecanoylamino)butanoyl]amino]ethoxy]ethoxy]acetyl]amino]ethoxy]ethoxy]acetyl]amino]butanoyl]amino]butanoyl]-[Aib2,Leu10,Glu15,Lys17,Arg20,Glu21,Leu27,Lys28]-Glucagon amide] (H-H[Aib]QGTFTSDLSKYLESKRAREFVQWLLK([γGlu-γGlu-AEEA-AEEA-γGlu-C18 diacid])T-NH2; N-terminus assumed): in series [3], the “Purity loss; 14 days at 37° C.” value was 1%. Also, the THT assay Lag time (Ex. 76) in series [4] worked out at 45 h.

In the case of `CC(C)C[C@H](NC(=O)[C@H](CC(=O)O)NC(=O)[C@H](CC(C)C)NC(=O)[C@H](Cc1ccc(O)cc1)NC(=O)[C@H](CCCNC(=N)N)NC(=O)[C@H](CO)NC(=O)[C@@H](NC(=O)[C@H](CC(=O)O)NC(=O)[C@H](CO)NC(=O)[C@@H](NC(=O)[C@H](Cc1ccccc1)NC(=O)[C@@H](NC(=O)CNC(=O)[C@H](CCC(N)=O)NC(=O)C(C)(C)NC(=O)[C@@H](N)Cc1c[nH]cn1)[C@@H](C)O)[C@@H](C)O)C(C)C)C(=O)N[C@@H](CCCNC(=N)N)C(=O)N[C@@H](CCCNC(=N)N)C(=O)N[C@@H](C)C(=O)N[C@@H](CCC(N)=O)C(=O)N[C@@H](CC(=O)O)C(=O)N[C@@H](Cc1ccccc1)C(=O)N[C@H](C(=O)N[C@@H](CCC(N)=O)C(=O)N[C@@H](Cc1c[nH]c2ccccc12)C(=O)N[C@@H](CC(C)C)C(=O)N[C@@H](CC(C)C)C(=O)N[C@@H](CCCCNC(=O)COCCOCCNC(=O)COCCOCCNC(=O)CC[C@H](NC(=O)CC[C@H](NC(=O)CC[C@H](NC(=O)CCCCCCCCCCCCCCCCC(=O)O)C(=O)O)C(=O)O)C(=O)O)C(=O)N[C@H](C(N)=O)[C@@H](C)O)C(C)C` [Example 73, N^ε28-[2-[2-[2-[[2-[2-[2-[[(4S)-4-carboxy-4-[[(4S)-4-carboxy-4-[[(4S)-4-carboxy-4-(17-carboxyheptadecanoylamino)butanoyl]amino]butanoyl]amino]butanoyl]amino]ethoxy]ethoxy]acetyl]amino]ethoxy]ethoxy]acetyl]-[Aib2,Val10,Arg12,Leu16,Leu27,Lys28]-Glucagon amide] (H-H[Aib]QGTFTSDVSRYLDLRRAQDFVQWLLK([AEEA-AEEA-γGlu-γGlu-γGlu-C18 diacid])T-NH2), the concentration for a half-maximal effect (EC50) in series [1] was determined as 0.005 nM. In addition, the 50% inhibitory concentration (IC50) in series [2] is 1.5 nM.

On to `CC(C)C[C@H](NC(=O)[C@H](Cc1ccc(O)cc1)NC(=O)[C@H](CCCCN)NC(=O)[C@H](CO)NC(=O)[C@H](CC(C)C)NC(=O)[C@H](CC(=O)O)NC(=O)[C@H](CO)NC(=O)[C@@H](NC(=O)[C@H](Cc1ccccc1)NC(=O)[C@@H](NC(=O)CNC(=O)[C@H](CCC(N)=O)NC(=O)C(C)(C)NC(=O)[C@@H](N)Cc1c[nH]cn1)[C@@H](C)O)[C@@H](C)O)C(=O)N[C@@H](CCC(=O)O)C(=O)N[C@@H](CO)C(=O)N[C@@H](CCCNC(=N)N)C(=O)N[C@@H](CCCNC(=N)N)C(=O)N[C@@H](C)C(=O)N[C@@H](CCCNC(=N)N)C(=O)N[C@@H](CC(=O)O)C(=O)N[C@@H](Cc1ccccc1)C(=O)N[C@H](C(=O)N[C@@H](CCC(N)=O)C(=O)N[C@@H](Cc1c[nH]c2ccccc12)C(=O)N[C@@H](CC(C)C)C(=O)N[C@@H](CC(C)C)C(=O)N[C@@H](CCCCNC(=O)COCCOCCNC(=O)COCCOCCNC(=O)CC[C@H](NC(=O)CC[C@H](NC(=O)CC[C@H](NC(=O)CCCCCCCCCCCCCCCCC(=O)O)C(=O)O)C(=O)O)C(=O)O)C(=O)N[C@H](C(N)=O)[C@@H](C)O)C(C)C` [Example 57, N^ε28-[2-[2-[2-[(2-[2-[2-[[(4S)-4-carboxy-4-[[(4S)-4-carboxy-4-[[(4S)-4-carboxy-4-(17-carboxyheptadecanoylamino)butanoyl]amino]butanoyl]amino]butanoyl]amino]ethoxy]ethoxy]acetyl]amino]ethoxy]ethoxy]acetyl]-[Aib2,Leu10,Glu15,Arg20,Leu27,Lys28]-Glucagon amide] (H-H[Aib]QGTFTSDLSKYLESRRARDFVQWLLK([AEEA-AEEA-γGlu-γGlu-γGlu-C18 diacid])T-NH2; N-terminus assumed), for which the EC50 in series [1] stood at 0.003 nM. Also, the IC50 in series [2] amounted to 0.2 nM.

Usually EC50 stands for the concentration that produces a half-maximal response. By IC50 is commonly meant the midpoint of a concentration-inhibition curve.
